Results on 6 compounds are retold here after publication PMC12489660, “Multitargeted Caffeic Acid Derivatives Inhibit Cardiac RyR2- and NaV1.5- Channels but Stimulate SERCA2a Pump Activity” (ACS Omega, 2025).

The EC50 is the concentration needed to bring the measured effect to its halfway point.

Several values for one entry are separate records, joined by “and”; a condition that tells them apart may be missing. Equal entries are not always repeated.

Series [1] can be described thus: PermeaPad membrane permeability. Format: in vitro ADME. The following applies: not told, room temperature, class low/medium in parentheses, read-out: P e (permeability rate). From the text: We determined permeability rates (P e ), which are a measure of how fast a compound can cross a membrane, using cell-free transport models (PermeaPad, innoME GmbH) The CA derivatives have medium to low permeability rates in the range 1.0–24.0 nm/s (Table ). Similar to S36, despite poor permeability, compounds 2–4, 8, and 9 acted on live RyR2-HEK-293 R-CEPIA1er cells inhibiting RyR2. […] Since PermeaPad is an artificial model that primarily reflects passive diffusion, it is likely that additional mechanisms contribute to the crossing of cell membranes by these compounds.
Membrane permeability was assessed using PermeaPad Plate according to the manufacturing procedure (innoME GmbH, Espelkamp, Germany). Briefly, 200 μL (V A) water was added into acceptor plate. 200 μL (V D) of 100–500 μM test compound in water was added directly to the well membranes of the donor plate. The donor plate contains a biomimetic membrane for simulating passive mass transfer through different barriers in the body. Then the donor plate was placed into the acceptor plate wells and incubated at room temperature for 24 h in dark. To determine peak absorbance of test compounds, absorbance spectra of acceptor solutions and initial solutions for each test compound were read out. The Permeability Rate (P e) was calculated using the formula:
P e = C × −ln (1 – ODA/ODB) cm/s, where OD A is the absorbance of acceptor solution, OD B is the absorbance of the standard solution; if the compound is able to permeabilize the membrane and fully reach equilibrium, 250 μM will be the final concentration of solution in the donor and acceptor wells. The coefficient C was calculated using the formula: C=VD×VA/(VD+VA)×Area×time where V A–acceptor volume (cm^3), V D–donor volume (cm^3), membrane area 0.24 cm^2, time is 86,400 s.

For series [2], the target named is SERCA2 (Mus musculus, UniProt O55143). The experiment in a line: Caffeine induced calcium release assay on live HL-1 cardiomyocytes.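 As to all read-outs here: Read-out: caffeine-evoked peak minus basal fluorescence (ΔF Caff) of cytoplasmic FLIPR Calcium 6 dye, recorded for 1 min, compared with Tyrode's solution plus 0.1 v/v% DMSO as control.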 The format is cell-based. The following applies: for activation of SERCA2 in HL-1: 10 μM, percentage from the control sample (100%), mean ± SEM; for EC50: 2 h preincubation, 10 mM caffeine, read-out: activation of SERCA2 in HL-1, EC50 (converted).

Series [3] concerns the target T1, SERCA2b (Homo sapiens, UniProt P16615).
T1 construct: endogenous in cells; host or cells: HEK-293T cells, microsomal membranes
The experiment in a line: NADH fluorescence-coupled ATPase assay on microsomal membranes isolated from HEK-293T cells. The format is biochemical. The following applies: 10 µM, HEK-293T microsomal membranes. From the text: HL-1 cells are known to express cardiac SERCA2a. […] HL-1 cells are in fact derived from mouse atrial cardiomyocytes that coexpress SERCA2a and SERCA2b. , We assumed that such behavior of compounds 1 and 5 is associated with their selective action on additional SERCA2 isoform present in these cells.

Series [4] addresses human NaV1.5 (Homo sapiens, UniProt Q14524). Put plainly: FLIPR membrane potential assay on CHO NaV1.5 Duo cells (veratridine-induced). Format: cell-based. The following applies: for NaV1.5 activity in CHO cells: 10 μM, percentage from the control sample (100%), mean ± SEM; for effect on NaV1.5 activity (in words): concentration range 0.1 to 100 μM.
Series [5] has as its target T2, SERCA2a (Mus musculus, UniProt O55143).
T2 construct: from tissue; host or cells: adult mouse heart ventricles, microsomal membrane vesicles
Put plainly: NADH-coupled ATPase assay on microsomal membrane vesicles from mouse heart ventricles (mouse SER). The format is biochemical. The following applies: for effect on SERCA2a ATPase activity (in words) / ATPase activity of SERCA2a in mouse SER: 10 μM; for effect on SERCA2a ATPase activity (in words): mouse SER; for ATPase activity of SERCA2a in mouse SER: percentage from the control sample (100%), mean ± SEM; for EC50: kinetic rate of NADH–NAD+ conversion, Figure S10: 200 µM free Ca2+. As to the method: To this end, we tracked the rate of nicotinamide adenine dinucleotide (NADH) oxidation linked to ATP hydrolysis by observing changes in NADH fluorescence over time. This was done after addition of ATP to solutions containing microsomal membranes enriched with SER vesicles isolated from adult mouse heart ventricles (mouse SER). The NADH fluorescence decrease was recorded on a FlexStation 3 Multimode Microplate Reader. […] We detected the highest increase in ATPase activity (up to 118%), when the vesicles were treated with borate complex 11–13 (Table ). We tested compounds 11–13 in the NADH assay buffer to see whether these compounds could contribute to the rate of NADH fluorescence reduction (Figures S7–S9). No significant deviations were found in the rate of NADH consumption compared to the control sample (0.1 v/v% DMSO).
Isolation of Microsomal Membrane Vesicles from mouse hearts was done according to procedure described earlier. All animal procedures were performed in accordance with national and institutional regulations.
Mouse ventricular microsomes (4–5 μg of total protein) were diluted in 100 μL of the assay buffer used for measurement of SERCA activity (described below) and incubated at room temperature for 10 min prior to the experiments. The measurements of SERCA2 activity were made at 25 °C by using a NADH -coupled ATPase assay as described in Radnai et al. with slight modifications. Briefly, the assay buffer contained 60 mM MOPS, 120 mM KCl, 6 mM MgCl2, 1 mM EGTA, 5 mM NaN3, 0.5 mM phosphoenolpyruvate and 0.67 mM CaCl2, pH 7.0. Before the reaction was started by the injection of 10 μL ATP (resulting in 2 mM final concentration in the well), 5 units/mL of both lactate dehydrogenase and pyruvate kinase, 0.5 mM NADH, and 1 μM Ca^2+ ionophore A-23187 (Sigma, C-7522) were added to the diluted sample with or without the tested compound (volume −150 μL). […] The NADH fluorescence decrease was recorded each 2 s for 5 min course on a FlexStation 3 Multi-Mode Microplate Reader in 96-well glass bottom plates (MatTek Corporation; Cat. No. PBK96G-1.5-5-F). Fluorescence was evoked by 380 nm excitation wavelength and collected in a bottom-read mode at 425 nm, cutoff–470 nm, 4 flashes per read. ATP was injected at 60 s, speed–125 μL/s, pipet height–140 μL. The data were analyzed with computer software GraphPad Prism version 8.3.1 (GraphPad Software, Inc.). The difference in signal decrease with and without microsomes was taken as an indicator for the additional ATPase activity performed by SERCA2. The obtained values for maximal SERCA2 activity were normalized for total protein concentration. Maximal SERCA2 activity values are reported as percentages of control (0.1% DMSO) values. Microsomal samples that were kept on ice until usage and set to 100%.

Series [6] concerns the target T3, wild type mouse RyR2 (Mus musculus, UniProt E9Q401).
T3 construct: expressed in transfected cells; host or cells: HEK-293 cells stably expressing WT RyR2 and R-CEPIA1er (gift of Dr. Takashi Murayama), induced with doxycycline
The experiment in a line: Time-lapse [Ca2+]ER assay in HEK-293 RyR2 R-CEPIA1er cells (RyR2 activity assay).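 As to all read-outs here: ER Ca2+ read as R-CEPIA1er fluorescence ratio F/F0 (F0 mean of initial 90 s, F mean of final 100 s), compared with vehicle-treated control wells.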 The following applies: 25 μM; for effect on RyR2 activity / [Ca2+]ER (in words): vs control 0.1 v/v% DMSO; for RyR2 activity: percentage from the control sample (100%), mean ± SEM. Format: cell-based.

Series [7] concerns HL-1 cells. The experiment in a line: CytoTox-Glo Cytotoxicity Assay. The format is cell-based. The following applies: 24 h, concentrations up to 1 μM. As to the method: Cell viability was assessed using CytoTox-Glo Cytotoxicity Assay according to the manufacturing procedure (Promega GmbH). Briefly, HL-1 cells were cultivated for 24 h in black-walled, clear-bottom 96-well microplates (Corning) covered with fibronectin/gelatin in DMEM, containing different concentrations of the tested compound (10,000 cells/well). Luminescence of a luminogenic peptide substrate was measured before and after addition of the lysis reagent (digitonin). The viable cell contribution was determined by a subtractive method. 0.1% DMSO treated cell were taken as a control.

Details of series [8]: method as in earlier work. The following applies: class low in parentheses; ref (number not given); cited from earlier work.

Chain of SERCA2 (O55143 1-994 limits assumed): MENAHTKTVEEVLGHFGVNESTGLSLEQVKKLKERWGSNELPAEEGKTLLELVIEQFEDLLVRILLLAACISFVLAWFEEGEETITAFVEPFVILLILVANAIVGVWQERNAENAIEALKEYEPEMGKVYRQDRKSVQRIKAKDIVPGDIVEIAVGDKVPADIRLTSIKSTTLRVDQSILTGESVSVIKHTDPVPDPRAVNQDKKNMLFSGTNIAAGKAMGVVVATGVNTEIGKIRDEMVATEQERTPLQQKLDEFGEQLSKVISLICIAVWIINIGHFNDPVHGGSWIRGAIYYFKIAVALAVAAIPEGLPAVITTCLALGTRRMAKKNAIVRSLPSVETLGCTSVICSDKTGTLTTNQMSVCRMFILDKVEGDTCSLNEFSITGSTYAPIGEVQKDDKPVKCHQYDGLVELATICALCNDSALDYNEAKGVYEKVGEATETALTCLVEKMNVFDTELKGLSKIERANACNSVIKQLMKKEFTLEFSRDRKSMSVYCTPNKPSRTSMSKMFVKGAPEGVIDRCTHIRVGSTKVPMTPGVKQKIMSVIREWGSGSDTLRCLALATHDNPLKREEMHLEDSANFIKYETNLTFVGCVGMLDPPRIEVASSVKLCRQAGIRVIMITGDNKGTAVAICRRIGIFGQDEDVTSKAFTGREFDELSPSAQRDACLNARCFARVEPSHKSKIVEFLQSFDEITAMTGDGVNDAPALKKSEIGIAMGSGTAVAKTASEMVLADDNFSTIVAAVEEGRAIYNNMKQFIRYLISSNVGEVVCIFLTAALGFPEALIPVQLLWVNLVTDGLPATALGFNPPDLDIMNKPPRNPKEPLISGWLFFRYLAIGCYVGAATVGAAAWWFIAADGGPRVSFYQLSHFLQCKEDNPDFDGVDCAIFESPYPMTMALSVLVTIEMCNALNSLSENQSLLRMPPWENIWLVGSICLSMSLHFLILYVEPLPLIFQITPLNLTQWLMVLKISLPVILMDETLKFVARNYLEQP
Chain of human NaV1.5 (Q14524 1-460 limits assumed): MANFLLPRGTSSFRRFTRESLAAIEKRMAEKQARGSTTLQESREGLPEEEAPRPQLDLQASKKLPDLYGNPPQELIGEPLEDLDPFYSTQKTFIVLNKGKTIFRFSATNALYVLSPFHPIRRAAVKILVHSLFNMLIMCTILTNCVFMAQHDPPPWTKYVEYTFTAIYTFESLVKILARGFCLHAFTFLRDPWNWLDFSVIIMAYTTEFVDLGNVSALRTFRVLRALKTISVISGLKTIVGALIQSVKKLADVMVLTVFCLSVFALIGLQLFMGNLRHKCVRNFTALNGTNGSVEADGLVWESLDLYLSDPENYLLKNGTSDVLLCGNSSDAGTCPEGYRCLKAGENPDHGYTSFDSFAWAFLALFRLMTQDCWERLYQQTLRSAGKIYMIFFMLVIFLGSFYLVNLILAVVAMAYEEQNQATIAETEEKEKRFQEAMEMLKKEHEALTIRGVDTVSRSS
Chain of human NaV1.5 (Q14524 661-1004 limits assumed): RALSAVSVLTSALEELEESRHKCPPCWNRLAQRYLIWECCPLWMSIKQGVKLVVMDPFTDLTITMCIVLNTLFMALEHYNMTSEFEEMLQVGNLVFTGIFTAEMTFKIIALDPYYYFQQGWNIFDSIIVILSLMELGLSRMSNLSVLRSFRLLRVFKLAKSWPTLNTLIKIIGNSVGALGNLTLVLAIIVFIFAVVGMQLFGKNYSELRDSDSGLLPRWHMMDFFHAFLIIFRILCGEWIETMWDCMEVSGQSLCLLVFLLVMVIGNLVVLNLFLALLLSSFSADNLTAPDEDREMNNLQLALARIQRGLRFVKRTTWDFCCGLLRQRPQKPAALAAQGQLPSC
Chain of human NaV1.5 (Q14524 1142-2016 limits assumed): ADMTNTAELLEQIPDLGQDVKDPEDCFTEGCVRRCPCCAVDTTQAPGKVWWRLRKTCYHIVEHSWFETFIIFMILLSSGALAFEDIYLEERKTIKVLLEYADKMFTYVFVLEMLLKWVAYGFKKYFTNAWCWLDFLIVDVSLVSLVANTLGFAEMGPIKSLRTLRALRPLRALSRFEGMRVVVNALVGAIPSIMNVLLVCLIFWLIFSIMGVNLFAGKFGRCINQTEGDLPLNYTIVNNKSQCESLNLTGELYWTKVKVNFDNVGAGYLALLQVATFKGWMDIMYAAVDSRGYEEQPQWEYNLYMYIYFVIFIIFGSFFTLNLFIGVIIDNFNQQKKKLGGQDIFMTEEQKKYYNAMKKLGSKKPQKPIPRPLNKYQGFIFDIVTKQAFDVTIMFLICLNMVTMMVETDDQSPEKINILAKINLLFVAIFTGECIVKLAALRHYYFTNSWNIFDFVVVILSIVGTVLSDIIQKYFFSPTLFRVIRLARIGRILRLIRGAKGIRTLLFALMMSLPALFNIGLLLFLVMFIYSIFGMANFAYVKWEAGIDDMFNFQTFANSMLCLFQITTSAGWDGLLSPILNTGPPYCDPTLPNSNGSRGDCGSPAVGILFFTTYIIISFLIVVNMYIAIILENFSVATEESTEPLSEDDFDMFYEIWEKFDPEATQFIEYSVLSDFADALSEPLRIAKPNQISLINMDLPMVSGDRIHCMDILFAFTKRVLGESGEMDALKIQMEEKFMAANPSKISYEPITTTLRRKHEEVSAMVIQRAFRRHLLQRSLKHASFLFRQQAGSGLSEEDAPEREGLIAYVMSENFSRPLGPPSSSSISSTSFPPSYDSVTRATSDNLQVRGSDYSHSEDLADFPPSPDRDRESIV
T2 sequence (O55143 1-998 isoform O55143-2): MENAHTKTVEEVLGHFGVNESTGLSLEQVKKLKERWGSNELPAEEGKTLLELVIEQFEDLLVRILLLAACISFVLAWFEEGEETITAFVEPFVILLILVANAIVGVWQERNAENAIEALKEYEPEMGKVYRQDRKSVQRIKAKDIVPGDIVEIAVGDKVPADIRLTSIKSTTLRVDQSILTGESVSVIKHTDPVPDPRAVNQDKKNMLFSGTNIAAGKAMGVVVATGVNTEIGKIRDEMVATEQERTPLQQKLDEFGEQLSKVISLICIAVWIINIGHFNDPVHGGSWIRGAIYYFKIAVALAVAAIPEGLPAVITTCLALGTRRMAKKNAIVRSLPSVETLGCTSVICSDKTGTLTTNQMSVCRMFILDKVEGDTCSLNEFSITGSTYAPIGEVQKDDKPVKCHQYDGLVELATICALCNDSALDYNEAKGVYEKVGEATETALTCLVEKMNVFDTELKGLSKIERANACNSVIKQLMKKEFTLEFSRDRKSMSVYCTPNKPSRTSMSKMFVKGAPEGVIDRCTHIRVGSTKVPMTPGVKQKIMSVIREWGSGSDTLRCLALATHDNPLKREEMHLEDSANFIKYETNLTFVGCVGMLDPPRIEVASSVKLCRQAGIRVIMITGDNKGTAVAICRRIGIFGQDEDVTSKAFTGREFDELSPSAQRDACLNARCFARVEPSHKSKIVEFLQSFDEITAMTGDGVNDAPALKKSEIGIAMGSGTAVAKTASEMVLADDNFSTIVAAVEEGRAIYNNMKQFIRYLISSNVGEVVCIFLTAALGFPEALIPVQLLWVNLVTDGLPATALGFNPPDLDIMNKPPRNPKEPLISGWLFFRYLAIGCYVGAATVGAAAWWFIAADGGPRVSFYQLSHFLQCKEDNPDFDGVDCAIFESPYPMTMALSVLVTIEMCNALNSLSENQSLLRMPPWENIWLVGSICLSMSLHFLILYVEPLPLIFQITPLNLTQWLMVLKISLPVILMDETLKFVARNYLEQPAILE
T1 sequence (P16615 whole entry): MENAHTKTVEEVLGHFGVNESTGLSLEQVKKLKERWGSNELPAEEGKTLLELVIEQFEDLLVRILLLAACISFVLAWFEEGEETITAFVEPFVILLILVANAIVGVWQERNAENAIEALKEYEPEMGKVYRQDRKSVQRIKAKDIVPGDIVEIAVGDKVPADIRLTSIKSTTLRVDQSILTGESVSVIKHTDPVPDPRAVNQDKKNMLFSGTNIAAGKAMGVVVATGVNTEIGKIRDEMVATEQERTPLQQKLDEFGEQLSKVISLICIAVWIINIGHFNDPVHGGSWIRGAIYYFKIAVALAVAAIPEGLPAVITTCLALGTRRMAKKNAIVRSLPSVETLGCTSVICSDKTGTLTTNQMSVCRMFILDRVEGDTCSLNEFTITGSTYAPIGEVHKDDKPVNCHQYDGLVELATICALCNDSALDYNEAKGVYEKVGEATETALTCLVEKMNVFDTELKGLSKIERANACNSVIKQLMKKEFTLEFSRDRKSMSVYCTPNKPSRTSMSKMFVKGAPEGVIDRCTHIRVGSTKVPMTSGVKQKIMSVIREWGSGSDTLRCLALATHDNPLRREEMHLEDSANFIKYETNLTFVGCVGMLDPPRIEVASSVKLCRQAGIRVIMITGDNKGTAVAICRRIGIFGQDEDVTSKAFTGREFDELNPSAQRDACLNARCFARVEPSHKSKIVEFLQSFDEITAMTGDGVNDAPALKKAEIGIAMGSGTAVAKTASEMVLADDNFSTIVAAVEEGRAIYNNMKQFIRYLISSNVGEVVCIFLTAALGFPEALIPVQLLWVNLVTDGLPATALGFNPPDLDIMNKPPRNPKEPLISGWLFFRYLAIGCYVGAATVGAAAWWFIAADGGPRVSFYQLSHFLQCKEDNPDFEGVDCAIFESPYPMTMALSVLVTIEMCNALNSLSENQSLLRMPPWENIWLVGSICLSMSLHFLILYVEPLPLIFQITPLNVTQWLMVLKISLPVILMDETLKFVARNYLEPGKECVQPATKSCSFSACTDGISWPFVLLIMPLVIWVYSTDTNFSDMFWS

Consider `COc1ccc(OCCCNC(=O)/C=C/c2ccc(O)c(O)c2)cc1` [Compound 1, (E)-3-(3,4-Dihydroxyphenyl)-N-(3-(4-methoxyphenyloxy)propyl)acrylamide], for which the Papp at 24 h in series [1] worked out at 1.8 ×10⁻⁶ cm/s. Also, the “activation of SERCA2 in HL-1” value in series [2] is reported as 157.7 ± 7.1%. Further, in series [2] (HL-1 cells), the 50% effective concentration (EC50) is 15000 nM and 14900 nM. Besides, in series [3], the “effect on ATPase activity (in words)” value is listed as “significantly increased the ATPase activity”. In addition, in series [4], the “NaV1.5 activity in CHO cells” value was 91.8 ± 1.0%. In series [5], the “effect on SERCA2a ATPase activity (in words)” value was “did not evoke a significant increase in ATPase activity” and the “ATPase activity of SERCA2a in mouse SER” value came out at 98.2 ± 6.5%. In addition, in series [6], the “effect on RyR2 activity / [Ca2+]ER (in words)” value is “did not affect the RyR2 activity” and the RyR2 activity is recorded as 100.8 ± 1.3%.
Consider `COc1ccc2c(c1)CN(CCCCNC(=O)/C=C/c1ccc(O)c(O)c1)CCS2` [Compound 5], for which the Papp at 24 h in series [1] is 0.9 ×10⁻⁶ cm/s. Also, in series [2], the “activation of SERCA2 in HL-1” value was determined as 190.6 ± 6.6%. The EC50 in series [2] (HL-1 cells) was 9000 nM and 9100 nM. The “effect on ATPase activity (in words)” value in series [3] is given as “significantly increased the ATPase activity”. Moreover, in series [4], the “NaV1.5 activity in CHO cells” value came to 97.7 ± 1.9%. Also, in series [5], the “effect on SERCA2a ATPase activity (in words)” value was “did not evoke a significant increase in ATPase activity” and the “ATPase activity of SERCA2a in mouse SER” value was determined as 109.0 ± 4.0%. In series [6], the “effect on RyR2 activity / [Ca2+]ER (in words)” value is on record as “did not affect the RyR2 activity” and the RyR2 activity was 100.5 ± 0.8%.
On to `COc1ccc2c(c1)CN(CCCCCCCCNC/C=C/c1ccc(O)c(O)c1)CCS2` [Compound 9], for which the Papp at 24 h in series [1] is 0.4 ×10⁻⁶ cm/s. Moreover, the “activation of SERCA2 in HL-1” value in series [2] is recorded as 164.0 ± 3.0%. Also, the EC50 in series [2] (HL-1 cells) is 10900 nM. Besides, in series [4], the “NaV1.5 activity in CHO cells” value worked out at 106.0 ± 1.0% and the “effect on NaV1.5 activity (in words)” value is “no effect on NaV1.5”. The “viability of HL-1 cells (in words)” value in series [7] is on record as “remained unchanged”. Also, in series [5], the “ATPase activity of SERCA2a in mouse SER” value was found to be 113.1 ± 2.1%; the concentration giving a half-maximal response (EC50) is 41 nM and 41.2 nM. In series [6], the “effect on RyR2 activity / [Ca2+]ER (in words)” value was “significantly increased [Ca^2+]ER” and the RyR2 activity came to 105.7 ± 0.4%.
With `COc1ccc2c(c1)CN(CCCCCC[NH+]([BH2-]C#N)C/C=C/c1ccc(O)c(O)c1)CCS2` (centres unmarked) [Compound 12], the Papp at 24 h in series [1] came out at 0.4 ×10⁻⁶ cm/s. Besides, the “activation of SERCA2 in HL-1” value in series [2] was determined as 277.8 ± 12.7%. For the same compound, the EC50 in series [2] (HL-1 cells) is 1100 nM. In series [4], the “NaV1.5 activity in CHO cells” value is on record as 86.2 ± 2.6%. In addition, in series [5], the “ATPase activity of SERCA2a in mouse SER” value stood at 118.2 ± 2.5% and the 50% effective concentration (EC50) is 2.3 nM. In addition, in series [6], the “effect on RyR2 activity / [Ca2+]ER (in words)” value is “significantly increased [Ca^2+]ER” and the RyR2 activity is listed as 103.9 ± 0.8%.
Turning to `COc1ccc2c(c1)CN(CCCCCCCC[NH+]([BH2-]C#N)C/C=C/c1ccc(O)c(O)c1)CCS2` (centres unmarked) [Compound 13], the Papp at 24 h in series [1] came to 0.1 ×10⁻⁶ cm/s. Moreover, the “activation of SERCA2 in HL-1” value in series [2] turned out to be 299.1 ± 12.8%. The concentration giving a half-maximal response (EC50) in series [2] (HL-1 cells) was 2500 nM. Also, in series [2] (HL-1 cells, from 1 to 10 μM, bell-shaped dose response, decreased at higher doses), the “stimulatory effect compared to the control” value is given as “up to 300%”. In series [4], the “NaV1.5 activity in CHO cells” value is on record as 83.3 ± 0.9%. Besides, in series [7], the “viability of HL-1 cells (in words)” value is reported as “remained unchanged”. In addition, in series [5], the “ATPase activity of SERCA2a in mouse SER” value is on record as 115.5 ± 3.7%; the EC50 was 23 nM and 23.1 nM. Also, in series [6], the “effect on RyR2 activity / [Ca2+]ER (in words)” value is “significantly increased [Ca^2+]ER” and the RyR2 activity is reported as 103.0 ± 0.4%.
With `COc1ccc2c(c1)CN(C(=O)C(=O)O)CCS2` [Compound S36, reference compound], the “effect on NaV1.5 activity (in words)” value in series [4] is “no effect on NaV1.5 activity”. Moreover, in series [6], the “effect on RyR2 activity / [Ca2+]ER (in words)” value is listed as “increase in R-CEPIA1er fluorescence” and the RyR2 activity is listed as 103.4 ± 0.7%. In series [8], the “P e (permeability rate)” value was 1.0 (low, ref ) 10^–6 cm/s.
